Key:
[1] = target: T1, CD1b (human CD1b monomer with β2m; CD1b tetramer) (Homo sapiens, UniProt P29016); experiment: SPR of BC8B TCR on lipid-loaded CD1b; tetramer staining; assay type: binding; details: indirect read-out of lipid loading; pH 8.0, 25 °C
T1 construct: soluble ectodomain with beta-2-microglobulin; His-tag purified; from High Five insect cells or HEK293S GnTI- (crystals, SPR); tetramer-facility monomers from U293 cells; with Beta-2-microglobulin

[2] = target: T1, CD1b (human CD1b monomer with β2m; CD1b tetramer); experiment: lipid-loaded CD1b tetramer staining of T-cell lines; assay type: cell-based; details: indirect read-out of lipid loading; CHAPS, citrate pH 7.4, 37 °C loading

T1 sequence (P29016 20-296): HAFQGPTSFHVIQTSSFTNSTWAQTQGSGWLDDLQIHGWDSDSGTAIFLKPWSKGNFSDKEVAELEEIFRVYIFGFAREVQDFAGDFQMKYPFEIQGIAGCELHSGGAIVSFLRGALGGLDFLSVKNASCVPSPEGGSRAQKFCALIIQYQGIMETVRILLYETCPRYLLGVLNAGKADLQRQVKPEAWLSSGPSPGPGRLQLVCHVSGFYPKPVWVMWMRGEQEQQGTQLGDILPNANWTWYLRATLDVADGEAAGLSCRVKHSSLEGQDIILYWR
T1 sequence (P61769 21-119 partner): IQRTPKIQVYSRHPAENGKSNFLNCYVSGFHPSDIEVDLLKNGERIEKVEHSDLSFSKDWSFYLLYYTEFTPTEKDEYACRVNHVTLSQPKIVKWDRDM

Structure (SMILES) | SPR of BC8B TCR on lipid-loaded CD1b; tetramer staining [1] | lipid-loaded CD1b tetramer staining of T-cell lines [2]
CCCCCCCCCCCCC/C=C/[C@@H](O)[C@H](COP(=O)([O-])OCC[N+](C)(C)C)NC(=O)CCCCCCCCCCCCCCC [SM, sphingomyelin] | The BC8B TCR detectably interacted with CD1b presenting the sphingolipid antigens, SM and sulfatide | –
CCCCCCCC/C=C\CCCCCCCC(=O)OC[C@@H](O)COP(=O)(O)O [LPA, lysophosphatidic acid] | – | specifically stained with phospholipids carrying small head groups, such as PG and LPA

Source: PMC6320368, “A T-cell receptor escape channel allows broad T-cell response to CD1b and membrane phospholipids” (Nature Communications, 2019)
